Assay results as given in patent publication US20230303564A1, “PYRIMIDINE RING COMPOUND” (MEDSHINE DISCOVERY INC., priority 2020, published 2023).

Key:
CDK1/CyclinB1 = CDK1/CyclinB1 (Homo sapiens (Human), UniProt P06493); test: CDK1/CyclinB1 enzyme activity test (ADP-Glo); type: biochemical; conditions: 25 μM ATP, 25° C. 120 minutes, read-out: CDK1/Cyclin B IC50
Method: CDK1/CyclinB1 Enzyme Reaction System
(§1) Enzymes, substrates, ATP, and inhibitors were diluted by kinase buffer in the kit. The compounds to be tested were diluted 5-fold with a multi-channel pipette to the eighth concentration, that is, from 50 μM to 0.65 nM, the concentration of DMSO was 5%, and a double-hole experiment was set up. 1 μL of each concentration gradient of inhibitors, 2 μL of CDK1/CyclinB1 enzyme (12.5 ng), 2 μL mixture of substrate and ATP (25 μM adenosine triphosphate, 0.2 μg/μL substrate) were added to the microplates, and the final concentration gradient of the compound was 10 μM to 0.13 nM. The reaction system was reacted at 25° C. for 120 minutes. After the reaction, 5 μL of ADP-Glo reagent was added to each well, the reaction was carried out at 25° C. for 40 minutes, after the reaction was completed, 10 μL of kinase detection reagent was added to each well, the reaction was carried out at 25° C. for 30 minutes, the multiple label analyzer was used to read the chemiluminescence with an integration time of 0.5 seconds.
(§2) The equation (Sample−Min)/(Max−Min)*100% was used to convert the raw data into inhibition rate, and the value of IC50 can be obtained by curve fitting with four parameters (obtained by log (inhibitor) vs. response-Variable slope mode in GraphPad Prism). The enzymatic inhibitory activity of the compounds of the present disclosure on CDK1/CyclinB1, CDK2/CyclinA2, CDK2/CyclinE1, CDK4/CyclinD1, CDK6/CyclinD1, CDK7/CyclinH/MAT1, CDK9/CyclinT1 was provided in Table 1.

CDK4/CyclinD1 = CDK4/CyclinD1 (Homo sapiens (Human), UniProt P11802); test: CDK4/CyclinD1 enzyme activity test (LANCE Ultra TR-FRET); type: biochemical; conditions: 350 μM ATP, 25° C. 120 minutes, read-out: CDK4/Cyclin D1 IC50
Method: CDK4/CyclinD1 Enzyme Reaction System
Preparation of Kinase Buffer:
The composition of the buffer: 50 mM of hydroxyethylpiperazine ethanesulfonic acid solution at pH 7.5, 1 mM of ethylenediaminetetraacetic acid, 10 mM of magnesium chloride, 0.01% Brij-35, and 2 mM of dithiothreitol.
Enzymes, substrate LANCE Ultra ULight™-4E-BP-1(Thr37146) Peptide, ATP, and inhibitors were diluted by kinase buffer.
The compounds to be tested were diluted 5-fold with a multi-channel pipette to the eighth concentration, that is, from 40 μM to 0.512 nM, the concentration of DMSO was 4%, and a double-hole experiment was set up. […] The reaction system was reacted at 25° C. for 120 minutes. After the reaction, 5 μL mixture of EDTA and 2× LANCE™ Detection Buffer (1:1) were added to each well, the reaction was carried out at 25° C. for 5 minutes, after the reaction was completed, 5 μL of LANCE Ultra Eu-anti-P-4E-BP1(Thr37MS) (4 nM) was added to each well, the reaction was carried out at 25° C. for 60 minutes, the reaction signal was detected by Nivo instrument according to the principle of time-resolved fluorescence resonance energy transfer.
as §2

CDK9/CyclinT1 = CDK9/CyclinT1 (Homo sapiens (Human), UniProt P50750); test: CDK9/CyclinT1 enzyme activity test (ADP-Glo); type: biochemical; conditions: 100 μM ATP, 25° C. 120 minutes, read-out: CDK 9/Cyclin T1 IC50
Method: CDK9/CyclinT1 Enzyme Reaction System
as §1, with “CDK9/CyclinT1” for “CDK1/CyclinB1”, “(4” for “(12.5”, “(100” for “(25”, “ATP,” for “adenosine triphosphate,”
as §2

[1] = Pharmacokinetic evaluation in CD-1 (ICR) mice, oral; type: in vivo, mouse; conditions: male CD-1 (ICR) mice, oral 5 mg/kg, plasma
Method: Experimental Scheme of Compounds 18, 19 and 20
The healthy adult male CD-1 (ICR) mice used in this study were purchased from Pinghu Weitong Lihua Experimental Animal Technology Co., Ltd.
0.300 mL of the stock solution was measured and vortexed for 2 minutes to obtain a homogeneous suspension at a concentration of 1 mg/mL, and the administration vehicle was 1% HPMC in water.
Two male CD-1 (ICR) mice were given 5 mg/kg of the compound to be tested by intragastric administration.
The blood of two animals was collected at each time point by serial blood collection. 30 μL of whole blood was collected respectively at 0.25, 0.5, 1, 2, 4, 8, and 24 hours after administration. The whole blood was placed in an anticoagulant tube, centrifuged at 3200 g for 10 minutes at 4° C., plasma was prepared and stored at −60° C. or lower. The drug concentration in plasma was determined by LC/MS-MS.

Chain of CDK4/CyclinD1 (P11802 whole entry): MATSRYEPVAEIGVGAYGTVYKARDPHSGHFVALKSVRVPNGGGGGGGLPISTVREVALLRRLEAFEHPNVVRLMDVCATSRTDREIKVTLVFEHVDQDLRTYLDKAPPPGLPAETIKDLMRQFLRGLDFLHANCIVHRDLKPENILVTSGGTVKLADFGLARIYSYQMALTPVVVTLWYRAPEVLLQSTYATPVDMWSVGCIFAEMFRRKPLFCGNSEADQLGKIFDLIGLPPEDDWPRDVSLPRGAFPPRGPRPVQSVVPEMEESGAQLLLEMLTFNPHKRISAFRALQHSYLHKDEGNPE
Chain of CDK4/CyclinD1 (P24385 whole entry partner): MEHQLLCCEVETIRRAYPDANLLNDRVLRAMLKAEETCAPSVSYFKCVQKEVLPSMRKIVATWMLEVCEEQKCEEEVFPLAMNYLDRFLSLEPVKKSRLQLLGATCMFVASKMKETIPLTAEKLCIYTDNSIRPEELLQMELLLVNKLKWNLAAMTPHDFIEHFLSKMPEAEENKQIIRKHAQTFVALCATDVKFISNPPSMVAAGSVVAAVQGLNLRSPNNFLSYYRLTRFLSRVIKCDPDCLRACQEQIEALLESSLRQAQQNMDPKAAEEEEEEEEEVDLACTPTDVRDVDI
Chain of CDK9/CyclinT1 (P50750 whole entry): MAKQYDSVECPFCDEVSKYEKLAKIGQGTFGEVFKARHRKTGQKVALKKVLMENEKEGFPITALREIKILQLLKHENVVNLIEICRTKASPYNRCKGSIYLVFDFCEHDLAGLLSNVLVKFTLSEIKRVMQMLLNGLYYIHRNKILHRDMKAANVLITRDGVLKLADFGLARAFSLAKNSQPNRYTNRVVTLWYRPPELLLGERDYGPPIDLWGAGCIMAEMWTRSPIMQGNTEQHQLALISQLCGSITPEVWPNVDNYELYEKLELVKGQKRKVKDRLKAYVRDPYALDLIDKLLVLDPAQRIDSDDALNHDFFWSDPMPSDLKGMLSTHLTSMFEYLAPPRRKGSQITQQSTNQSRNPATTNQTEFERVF
Chain of CDK9/CyclinT1 (O60563 whole entry partner): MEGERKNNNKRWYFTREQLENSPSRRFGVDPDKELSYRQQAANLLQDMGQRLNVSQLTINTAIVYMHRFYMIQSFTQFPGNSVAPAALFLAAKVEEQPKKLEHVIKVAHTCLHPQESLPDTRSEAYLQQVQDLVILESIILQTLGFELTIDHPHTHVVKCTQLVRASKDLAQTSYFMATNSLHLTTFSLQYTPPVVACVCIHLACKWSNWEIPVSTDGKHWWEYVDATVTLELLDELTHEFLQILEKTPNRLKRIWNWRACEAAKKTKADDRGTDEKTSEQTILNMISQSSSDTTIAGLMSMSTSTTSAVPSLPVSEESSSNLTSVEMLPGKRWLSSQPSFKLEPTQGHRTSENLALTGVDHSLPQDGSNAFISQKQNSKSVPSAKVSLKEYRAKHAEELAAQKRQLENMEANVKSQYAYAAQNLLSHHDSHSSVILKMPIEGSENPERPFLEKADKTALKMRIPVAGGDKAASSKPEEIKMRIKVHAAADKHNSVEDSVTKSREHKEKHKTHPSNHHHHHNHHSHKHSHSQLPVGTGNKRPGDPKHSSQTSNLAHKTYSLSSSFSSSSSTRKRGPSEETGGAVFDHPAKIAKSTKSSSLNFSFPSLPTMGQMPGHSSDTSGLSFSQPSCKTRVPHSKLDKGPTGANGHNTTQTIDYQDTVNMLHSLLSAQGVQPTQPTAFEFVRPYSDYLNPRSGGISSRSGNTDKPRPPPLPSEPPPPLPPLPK
Chain of CDK1/CyclinB1 (P06493 whole entry): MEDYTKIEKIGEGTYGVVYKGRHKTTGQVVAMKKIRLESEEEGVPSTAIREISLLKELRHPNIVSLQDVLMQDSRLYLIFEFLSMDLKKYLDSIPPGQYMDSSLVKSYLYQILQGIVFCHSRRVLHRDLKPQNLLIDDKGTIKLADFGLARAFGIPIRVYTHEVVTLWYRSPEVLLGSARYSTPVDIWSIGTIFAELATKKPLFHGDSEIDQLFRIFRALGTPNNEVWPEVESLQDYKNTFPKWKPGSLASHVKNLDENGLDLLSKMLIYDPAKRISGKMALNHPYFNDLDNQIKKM
Chain of CDK1/CyclinB1 (P14635 whole entry partner): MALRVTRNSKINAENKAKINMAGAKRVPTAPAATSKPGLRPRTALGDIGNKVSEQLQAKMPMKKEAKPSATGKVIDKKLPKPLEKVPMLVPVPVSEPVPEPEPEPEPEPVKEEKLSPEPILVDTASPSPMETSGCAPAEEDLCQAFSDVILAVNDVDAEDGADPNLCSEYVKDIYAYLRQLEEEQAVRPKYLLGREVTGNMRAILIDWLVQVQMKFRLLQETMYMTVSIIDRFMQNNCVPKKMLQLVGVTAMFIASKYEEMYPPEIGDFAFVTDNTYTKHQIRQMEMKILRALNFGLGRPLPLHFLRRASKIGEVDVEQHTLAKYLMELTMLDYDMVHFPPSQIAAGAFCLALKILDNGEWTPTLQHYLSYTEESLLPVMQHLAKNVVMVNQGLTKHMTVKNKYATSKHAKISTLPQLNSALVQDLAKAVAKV

## CS(=O)(=O)N1CCC(Nc2ncc3cc(C(F)F)nc(N[C@@H]4CCCC4(F)F)c3n2)CC1 (single isomer, unassigned) [Compound 22]
CDK1/CyclinB1
  IC50: 8.86 nM
CDK4/CyclinD1
  IC50: 0.5 nM
CDK9/CyclinT1
  IC50: 36.9 nM

## Cc1cn(C)nc1Nc1nc(C(F)F)cc2cnc(NC3CCN(S(C)(=O)=O)CC3)nc12 [Compound 19]
CDK4/CyclinD1
  IC50: 4.26 nM
CDK9/CyclinT1
  IC50: 178 nM
[1]
  Oral exposure AUC0-t: 3143 nM·h

## Cn1cc(Cl)c(Nc2nc(C(F)F)cc3cnc(NC4CCN(S(C)(=O)=O)CC4)nc23)n1 [Compound 20]
CDK4/CyclinD1
  IC50: 0.82 nM
CDK9/CyclinT1
  IC50: 106 nM
[1]
  Oral exposure AUC0-t: 2746 nM·h
